Data from patent US20230414634A1, “METHODS FOR TREATING CHOLESTATIC PRURITUS” (GlaxoSmithKline Intellectual Property (No.2) Limited, priority 2020, published 2023).

Assays:
[1] = tested on: patients with PBC and cholestatic pruritus; assay: GLIMMER Phase 2b study: safety and tolerability (adverse events, Safety population); assay type: in vivo, human
Excerpt: Secondary and exploratory endpoints: itch efficacy, quality of life (PBC-40) and pharmacodynamic biomarkers, and safety and tolerability.
In the GLIMMER trial, once daily dosing (QD) was expected to be the optimum dosing regimen. The rationale for QD was as follows: i) it was considered optimal to administer one dose in the morning alone, avoiding administering a dose at night in order to minimise the known side effect of diarrhoea during the night, and ii) one dose per day is generally expected to result in a better patient compliance. The tablet sizes employed in the trial were 10 mg and 45 mg which allowed administration of different dose sizes by combining tablets.
As illustrated in FIG. 1(i), the initial dose sizes were: placebo, 20 mg QD, 90 mg QD and 180 mg QD. Also included was a dose size of 90 mg BID which was evaluated in the earlier Phase 2a study. […] This warranted a further investigation of twice daily dosing. It was decided to add a new 40 mg BID group, and to cease the 20 mg QD dose.

[2] = tested on: TSBA, C4, FGF-19, serum autotaxin and LDL cholesterol; assay: GLIMMER Phase 2b study: pharmacodynamic serum biomarkers; assay type: in vivo, human
Excerpt: The following biomarkers are useful in clinical investigations relating to the treatment of pruritus, particularly cholestatic pruritus:
Serum 7-α-hydroxy-4-cholesten-3-one (C4)
C4 is an intermediate in the biochemical synthesis of bile acids from cholesterol. C4 concentrations reflect the activity of the bile acid synthetic pathway.
FGF-19 a protein which functions as a hormone, regulating bile acid synthesis, with effects on glucose and lipid metabolism.
Autotaxin is the enzyme that produces lysophosphatidic acid (LPA) which is found to correlate with itch intensity.
LDL one of the five major groups of lipoprotein which transport all fat molecules around the body in the extracellular water.
TSBA are metabolized in the liver and can serve as a marker for normal liver function.
Measurement of Level of Pharmacodynamic Biomarkers
Total serum bile acids (TSBA) (FIG. 10)
Serum 7-α-hydroxy-4-cholesten-3-one (C4) (FIG. 2)
Serum fibroblast growth factor-19 (FGF-19) (FIG. 7)
Serum LDL (low-density lipoprotein) cholesterol (FIG. 9)
Further analysis of biomarker parameters provided clear indication of pharmacological action with decreases in total serum bile acids (TSBA), increases in the serum bile acid precursor C4 (7-a-hydroxy-4-cholesten-3-one) and corresponding mean decreases in fibroblast growth factor 19 (FGF-19), a hormone that regulates bile acid synthesis. […] Reductions in FGF-19 and autotaxin were also observed across most treatment groups during the main study period (excluding placebo for FGF-19 and linerixibat 20 mg QD for autotaxin) (FIG. 7, FIG. 8).

CCCC[C@]1(CC)CS(=O)(=O)c2cc(CNC(CC(=O)O)CC(=O)O)c(OC)cc2[C@@H](c2ccccc2)N1 [linerixibat]
Abdominal distension: number of patients ([1]; 20 mg QD (N = 14)): 0 | Abdominal pain lower: % of patients ([1]; 20 mg QD (N = 14)): (7%) | Abdominal pain lower: number of patients ([1]; 20 mg QD (N = 14)): 1 | Abdominal pain upper: % of patients ([1]; 20 mg QD (N = 14)): (14%) | Abdominal pain upper: number of patients ([1]; 20 mg QD (N = 14)): 2 | Abdominal pain: % of patients ([1]; 20 mg QD (N = 14)): (14%) | Abdominal pain: number of patients ([1]; 20 mg QD (N = 14)): 2 | Adverse events Main Study, ANY EVENT: % of patients ([1]; 20 mg QD (N = 14)): (57%) | Adverse events Main Study, ANY EVENT: number of patients ([1]; 20 mg QD (N = 14)): 8 | Diarrhoea: % of patients ([1]; 20 mg QD (N = 14)): (36%) | Diarrhoea: number of patients ([1]; 20 mg QD (N = 14)): 5 | Dry mouth: % of patients ([1]; 20 mg QD (N = 14)): (14%) | Dry mouth: number of patients ([1]; 20 mg QD (N = 14)): 2 | Flatulence: % of patients ([1]; 20 mg QD (N = 14)): (7%) | Flatulence: number of patients ([1]; 20 mg QD (N = 14)): 1 | Gastrointestinal disorders, Any event: % of patients ([1]; 20 mg QD (N = 14)): (50%) | Gastrointestinal disorders, Any event: number of patients ([1]; 20 mg QD (N = 14)): 7 | Gastrooesophageal reflux disease: % of patients ([1]; 20 mg QD (N = 14)): (7%) | Gastrooesophageal reflux disease: number of patients ([1]; 20 mg QD (N = 14)): 1 | Nausea: % of patients ([1]; 20 mg QD (N = 14)): (7%) | Nausea: number of patients ([1]; 20 mg QD (N = 14)): 1 | Vomiting: % of patients ([1]; 20 mg QD (N = 14)): (7%) | Vomiting: number of patients ([1]; 20 mg QD (N = 14)): 1 | gastrointestinal tolerability data ([1]; 40 mg BID versus higher doses): favored 40 mg BID dosing over higher doses | Abdominal distension: number of patients ([1]; 90 mg BID (N = 13)): 0 | Abdominal pain upper: number of patients ([1]; 90 mg BID (N = 13)): 0 | Abdominal pain: number of patients ([1]; 90 mg BID (N = 13)): 1 | Adverse events Main Study, ANY EVENT: % of patients ([1]; 90 mg BID (N = 13)): (69%) | Adverse events Main Study, ANY EVENT: number of patients ([1]; 90 mg BID (N = 13)): 9 | Diarrhoea: number of patients ([1]; 90 mg BID (N = 13)): 5 | Dry mouth: number of patients ([1]; 90 mg BID (N = 13)): 0 | Flatulence: number of patients ([1]; 90 mg BID (N = 13)): 0 | Gastrointestinal disorders, Any event: number of patients ([1]; 90 mg BID (N = 13)): 5 | Gastrooesophageal reflux disease: number of patients ([1]; 90 mg BID (N = 13)): 0 | Nausea: % of patients ([1]; 90 mg BID (N = 13)): (15%) | Nausea: number of patients ([1]; 90 mg BID (N = 13)): 2 | Vomiting: % of patients ([1]; 90 mg BID (N = 13)): (8%) | Vomiting: number of patients ([1]; 90 mg BID (N = 13)): 1 | tolerability at interim analysis ([1]; 90 mg BID versus 180 mg QD): better tolerated than 180 mg QD | Abdominal distension: % of patients ([1]; 90 mg QD (N = 12)): (8%) | Abdominal distension: number of patients ([1]; 90 mg QD (N = 12)): 1 | Abdominal pain lower: % of patients ([1]; 90 mg QD (N = 12)): (8%) | Abdominal pain lower: number of patients ([1]; 90 mg QD (N = 12)): 1 | Abdominal pain: % of patients ([1]; 90 mg QD (N = 12)): (8%) | Abdominal pain: number of patients ([1]; 90 mg QD (N = 12)): 1 | Adverse events Main Study, ANY EVENT: % of patients ([1]; 90 mg QD (N = 12)): (75%) | Adverse events Main Study, ANY EVENT: number of patients ([1]; 90 mg QD (N = 12)): 9 | Diarrhoea: % of patients ([1]; 90 mg QD (N = 12)): (50%) | Diarrhoea: number of patients ([1]; 90 mg QD (N = 12)): 6 | Dry mouth: % of patients ([1]; 90 mg QD (N = 12)): (8%) | Dry mouth: number of patients ([1]; 90 mg QD (N = 12)): 1 | Flatulence: number of patients ([1]; 90 mg QD (N = 12)): 0 | Gastrointestinal disorders, Any event: % of patients ([1]; 90 mg QD (N = 12)): (50%) | Gastrointestinal disorders, Any event: number of patients ([1]; 90 mg QD (N = 12)): 6 | Gastrooesophageal reflux disease: number of patients ([1]; 90 mg QD (N = 12)): 0 | Nausea: number of patients ([1]; 90 mg QD (N = 12)): 0 | Vomiting: number of patients ([1]; 90 mg QD (N = 12)): 0 | Abdominal distension: % of patients ([1]; 180 mg QD (N = 17)): (6%) | Abdominal pain lower: number of patients ([1]; 180 mg QD (N = 17)): 0 | Abdominal pain upper: % of patients ([1]; 180 mg QD (N = 17)): (6%) | Abdominal pain: number of patients ([1]; 180 mg QD (N = 17)): 5 | Adverse events Main Study, ANY EVENT: % of patients ([1]; 180 mg QD (N = 17)): (82%) | Adverse events Main Study, ANY EVENT: number of patients ([1]; 180 mg QD (N = 17)): 14 | Diarrhoea: number of patients ([1]; 180 mg QD (N = 17)): 10 | Dry mouth: number of patients ([1]; 180 mg QD (N = 17)): 0 | Flatulence: % of patients ([1]; 180 mg QD (N = 17)): (6%) | Gastrointestinal disorders, Any event: number of patients ([1]; 180 mg QD (N = 17)): 14 | Gastrooesophageal reflux disease: number of patients ([1]; 180 mg QD (N = 17)): 0 | Nausea: % of patients ([1]; 180 mg QD (N = 17)): (6%) | Nausea: number of patients ([1]; 180 mg QD (N = 17)): 1 | Vomiting: % of patients ([1]; 180 mg QD (N = 17)): (12%) | Vomiting: number of patients ([1]; 180 mg QD (N = 17)): 2 | most common AE ([1]; in vivo): diarrhea | FGF-19 mean change from baseline compared with placebo (ANCOVA) ([2]; 40 mg BID): statistically significant reductions | serum C4 increase ([2]; 40 mg BID and 90 mg BID doses): largest increase | serum autotaxin concentration compared with placebo ([2]; 40 mg BID, Week 16): significantly decreased | C4 LS mean ratio increases from baseline (MMRM) ([2]; 180 mg QD and both BID treatment groups): largest increases | LDL cholesterol compared to the placebo group ([2]; Week 16, all linerixibat treatment groups with the exception of 20 mg QD): significantly reduced | fibroblast growth factor-19 (FGF-19) reduction ([2]; two BID doses of 40 mg and 90 mg): greatest reduction | total serum bile acids (TSBA) compared with baseline (MMRM) ([2]; week 16, 40 mg and 90 mg BID): statistically significant decrease
